Reference: US9416111B2, “Substituted diazine and triazine spleen tyrosine kinease (Syk) inhibitors” (Merck Sharp & Dohme Corp., priority 2012, dated 2016)
Read-outs that look alike come from different tables or passages of the source.

Target: T1, recombinant human GST-SYK (Homo sapiens, UniProt P43405)
T1 construct: purchased Carna Biosciences 08-176
Assay: Homogeneous Time-Resolved Fluorescence (HTRF) assay for the recombinant human Syk enzyme
Assay type: biochemical
Conditions: GST-hSYK 5 pM, ATP 25 μM
Method: Homogeneous Time-Resolved Fluorescence (HTRF) Assay for the Recombinant Human Syk Enzyme
A recombinant GST-hSYK fusion protein was used to measure potency of compounds to inhibit human Syk activity. The recombinant human GST-SYK (Carna Biosciences #08-176) (5 pM final concentration) was incubated with various concentrations of the inhibitor diluted in DMSO (0.1% final concentration) for 10 minutes at room temperature in 15 mM Tris-HCl (pH 7.5), 0.01% tween 20, 2 mM DTT in 384 well plate format. To initiate the reaction the biotinylated substrate peptide (250 nM final concentration) that contains the phosphorylation site for Syk was added with magnesium (5 mM final concentration) and ATP (25 μM final concentration). Final volume of the reaction was 10 μL. Phosphorylation of the peptide was allowed to proceed for 45′ at room temperature. To quench the reaction and detect the phosphorylated product, 2 nM of a Europium-anti-phosphotyrosine antibody (Perkin Elmer #AD0161) and 70 nM SA-APC (Perkin-Elmer #CR130-100) were added together in 15 mM Tris pH 7.5, 40 mM EDTA, 0.01% tween 20. Final volume of the quenching solution was 10 μL. The resulting HTRF signal was measured after 30 minutes on an EnVision (Perkin-Elmer) reader using a time-resolved fluorescence protocol.

[1] = IC50 rated in classes, read-out: rhSYK Activity

IC50 [1] [nM] | IC50 (values in text, read-out: IC50) [nM] | Structure (SMILES)
< 100 | 0.6 | Cc1cc(Nc2nccc(C(F)F)n2)cc(-c2cnc([C@@H](C)[C@H]3CC[C@H](C(=O)O)CC3)nc2)c1 (single isomer, unassigned) [Example 6.1, trans-4-{1-[5-(3-{[4-(difluoromethyl)pyrimidin-2-yl]amino}-5-methylphenyl)pyrimidin-2-yl]ethyl}cyclohexanecarboxylic acid]
< 100 | 0.3 | Cc1cc(Nc2nccc(C(F)F)n2)cc(-c2cnc([C@@H](C)[C@H]3CC[C@H](C(=O)O)CC3)nc2)c1 (single isomer, unassigned) [Example 6.2, trans-4-{1-[5-(3-{[4-(difluoromethyl)pyrimidin-2-yl]amino}-5-methylphenyl)pyrimidin-2-yl]ethyl}cyclohexanecarboxylic acid]
< 100 |  | Cc1cc(Nc2nccc(C(F)F)n2)cc(-c2cnc([C@H](C)[C@H]3CC[C@H](C(=O)O)[C@H](C)C3)nc2)c1 (single isomer, unassigned) [Example 7.1]
< 100 | < 0.5 | Cc1cc(Nc2nccc(C(F)F)n2)cc(-c2cnc([C@H](C)[C@H]3CC[C@H](C(=O)O)[C@H](C)C3)nc2)c1 (single isomer, unassigned) [Example 7.2]
< 100 |  | Cc1cc(Nc2nccc(C(F)F)n2)cc(-c2cnc([C@H](C)[C@H]3CC[C@H](C(=O)O)[C@H](C)C3)nc2)c1 (single isomer, unassigned) [Example 7.3]
< 100 | 0.8 | Cc1cc(Nc2nccc(C(F)F)n2)cc(-c2cnc([C@H](C)[C@H]3CC[C@H](C(=O)O)[C@H](C)C3)nc2)c1 (single isomer, unassigned) [Example 7.4]
< 100 | 0.8 | Cc1cc(Nc2nccc(C(F)F)n2)cc(-c2cnc([C@H](C)[C@H]3CC[C@H](C(=O)O)[C@H](C)C3)nc2)c1 (single isomer, unassigned) [Example 7.5]
< 100 | 0.7 | Cc1cc(Nc2nccc(C(F)F)n2)cc(-c2cnc([C@H](C)[C@H]3CC[C@H](C(=O)O)[C@H](C)C3)nc2)c1 (single isomer, unassigned) [Example 7.6]
< 100 | 1.2 | Cc1cc(Nc2nccc(C(F)F)n2)cc(-c2cnc([C@H](C)[C@H]3CC[C@H](C(=O)O)[C@H](C)C3)nc2)c1 (single isomer, unassigned) [Example 7.7]
< 100 |  | Cc1cc(Nc2nccc(C(F)F)n2)cc(-c2cnc([C@H](C)[C@H]3CC[C@H](C(=O)O)[C@H](C)C3)nc2)c1 (single isomer, unassigned) [Example 7.8]

Continued, molecule first:

Structure (SMILES) | IC50 [1] [nM] | IC50 (values in text, read-out: IC50) [nM]
COCC(Nc1ncc(-c2cc(C)cc(Nc3nccc(C(F)(F)F)n3)c2)cn1)C(=O)O (racemic) [Example 2.38, O-methyl-N-[5-(3-methyl-5-{[4-(trifluoromethyl)pyrimidin-2-yl]amino}phenyl)pyrimidin-2-yl]serine] | < 100 | 
Cc1cc(Nc2nccc(C(F)(F)F)n2)cc(-c2cnc(NC(CO)C(=O)O)nc2)c1 (racemic) [Example 2.41, N-[5-(3-methyl-5-{[4-(trifluoromethyl)pyrimidin-2-yl]amino}phenyl)pyrimidin-2-yl]serine] | < 100 | 
CNC(=O)C1CCCN1c1ncc(-c2cc(C)cc(Nc3nccc(C(F)(F)F)n3)c2)cn1 (racemic) [Example 2.70, N-methyl-1-[5-(3-methyl-5-{[4-(trifluoromethyl)pyrimidin-2-yl]amino}phenyl)pyrimidin-2-yl]prolinamide] | < 100 | 
Cc1cc(Nc2nccc(C(F)(F)F)n2)cc(-c2cnc(N3CCCC3C(N)=O)nc2)c1 (racemic) [Example 2.74, 1-[5-(3-methyl-5-{[4-(trifluoromethyl)pyrimidin-2-yl]amino}phenyl)pyrimidin-2-yl]prolinamide] | < 100 | 
Cc1cc(Nc2nccc(C(F)(F)F)n2)cc(-c2cncnc2)c1 [Example 1.1, N-(3-methyl-5-pyrimidin-5-ylphenyl)-4-(trifluoromethyl)pyrimidin-2-amine] | < 100 | 66.2
COc1ncc(-c2cc(C)cc(Nc3nccc(C(F)(F)F)n3)c2)cn1 [Example 1.2, N-[3-(2-methoxypyrimidin-5-yl)-5-methylphenyl]-4-(trifluoromethyl)pyrimidin-2-amine] | < 100 | 
Cc1cc(Nc2nccc(C(F)(F)F)n2)cc(-c2cnc(N)nc2)c1 [Example 1.3, N-[3-(2-aminopyrimidin-5-yl)-5-methylphenyl]-4-(trifluoromethyl)pyrimidin-2-amine] | < 100 | 
COCCNc1ncc(-c2cc(C)cc(Nc3nccc(C(F)(F)F)n3)c2)cn1 [Example 1.4, N-(3-{2-[(2-methoxyethyl)amino]pyrimidin-5-yl}-5-methylphenyl)-4-(trifluoromethyl)pyrimidin-2-amine] | < 100 | 
COc1ccnc(Nc2cc(C)cc(-c3cnc(CCC(=O)O)nc3)c2)n1 [Example 1.5, 3-(5-{3-[(4-methoxypyrimidin-2-yl)amino]-5-methylphenyl}pyrimidin-2-yl)propanoic acid] | < 100 | 
CCOC(=O)CCc1ncc(-c2cc(C)cc(Nc3nccc(C4CC4)n3)c2)cn1 [Example 1.6, ethyl 3-(5-{3-[(4-cyclopropylpyrimidin-2-yl)amino]-5-methylphenyl}pyrimidin-2-yl)pronanoate] | < 100 | 
CCOC(=O)CCc1ncc(-c2cc(C)cc(Nc3nccc(C)n3)c2)cn1 [Example 1.7, ethyl 3-(5-{3-methyl-5-[(4-methylpyrimidin-2-yl)amino]phenyl}pyrimidin-2-yl)propanoate] | 100 to 1000 | 
Cc1cc(Nc2nccc(C(F)(F)F)n2)cc(-c2cnc(NC(C)(CO)CO)nc2)c1 [Example 2.1, 2-methyl-2-{[5-(3-methyl-5-{[4-(trifluoromethyl)pyrimidin-2-yl]amino}phenyl)pyrimidin-2-yl]amino}propane-1,3-diol] | < 100 | 17.2
Cc1cc(Nc2nccc(C(F)(F)F)n2)cc(-c2cnc(NC(C)(C)C(=O)O)nc2)c1 [Example 2.2, 2-methyl-N-[5-(3-methyl-5-{[4-(trifluoromethyl)pyrimidin-2-yl]amino}phenyl)pyrimidin-2-yl]alanine] | < 100 | 
Cc1cc(Nc2nccc(C(F)(F)F)n2)cc(-c2cnc(NC3(C(=O)O)CC3)nc2)c1 [Example 2.3, 1-{[5-(3-methyl-5-{[4-(trifluoromethyl)pyrimidin-2-yl]amino}phenyl)pyrimidin-2-yl]amino}cyclopropanecarboxylic acid] | < 100 | 
Cc1cc(Nc2nccc(C(F)(F)F)n2)cc(-c2cnc(NC3(C(=O)O)CCC3)nc2)c1 [Example 2.4, l-{[5-(3-methyl-5-{[4-(trifluoromethyl)pyrimidin-2-yl]amino}phenyl)pyrimidin-2-yl]amino}cyclobutanecarboxylic acid] | < 100 | 
Cc1cc(Nc2nccc(C(F)(F)F)n2)cc(-c2cnc(N3CCC[C@H]3C(=O)O)nc2)c1 [Example 2.5, 1-[5-(3-methyl-5-{[4-(trifluoromethyl)pyrimidin-2-yl]amino}phenyl)pyrimidin-2-yl]-L-proline] | < 100 | 
Cc1cc(Nc2nccc(C(F)(F)F)n2)cc(-c2cnc(N3CC[C@H]3C(=O)O)nc2)c1 [Example 2.6, (2S)-l-[5-(3-methyl-5-{[4-(trifluoromethyl)pyrimidin-2-yl]amino}phenyl)pyrimidin-2-yl]azetidine-2-carboxylic acid] | < 100 | 
Cc1cc(Nc2nccc(C(F)(F)F)n2)cc(-c2cnc(NC3CCNC3=O)nc2)c1 (stereo not drawn) [Example 2.7, 3-{[5-(3-methyl-5-{[4-(trifluoromethyl)pyrimidin-2-yl]amino}phenyl)pyrimidin-2-yl]amino}pyrrolidin-2-one] | < 100 | 
Cc1cc(Nc2nccc(C(F)(F)F)n2)cc(-c2cnc(NCCC(=O)O)nc2)c1 [Example 2.8, N-[5-(3-methyl-5-{[4-(trifluoromethyl)pyrimidin-2-yl]amino}phenyl)pyrimidin-2-yl]-beta-alanine] | < 100 | 
Cc1cc(Nc2nccc(C(F)(F)F)n2)cc(-c2cnc(N(C)[C@@H](C)C(=O)O)nc2)c1 [Example 2.9, N-methyl-N-[5-(3-methyl-5-{[4-(trifluoromethyl)pyrimidin-2-yl]amino}phenyl)pyrimidin-2-yl]-L-alanine] | < 100 | 
Cc1cc(Nc2nccc(C(F)(F)F)n2)cc(-c2cnc(N3CCC(O)C3)nc2)c1 (stereo not drawn) [Example 2.10, l-[5-(3-methyl-5-{[4-(trifluoromethyl)pyrimidin-2-yl]amino}phenyl)pyrimidin-2-yl]pyrrolidin-3-ol] | < 100 | 
Cc1cc(Nc2nccc(C(F)(F)F)n2)cc(-c2cnc(NCCCC(=O)O)nc2)c1 [Example 2.11, 4-{[5-(3-methyl-5-{[4-(trifluoromethyl)pyrimidin-2-yl]amino}phenyl)pyrimidin-2-yl]amino}butanoic acid] | < 100 | 
Cc1cc(Nc2nccc(C(F)(F)F)n2)cc(-c2cnc(NCC(=O)O)nc2)c1 [Example 2.12, N-[5-(3-methyl-5-{[4-(trifluoromethyl)pyrimidin-2-yl]amino}phenyl)pyrimidin-2-yl]glycine] | < 100 | 
